For four molecules, Ki results are on record in patent US8592457B2, “Isonicotinamide orexin receptor antagonists” (Merck Sharp & Dohme Corp., priority 2008, dated 2013).

OX2R, sequence (O43614 whole entry): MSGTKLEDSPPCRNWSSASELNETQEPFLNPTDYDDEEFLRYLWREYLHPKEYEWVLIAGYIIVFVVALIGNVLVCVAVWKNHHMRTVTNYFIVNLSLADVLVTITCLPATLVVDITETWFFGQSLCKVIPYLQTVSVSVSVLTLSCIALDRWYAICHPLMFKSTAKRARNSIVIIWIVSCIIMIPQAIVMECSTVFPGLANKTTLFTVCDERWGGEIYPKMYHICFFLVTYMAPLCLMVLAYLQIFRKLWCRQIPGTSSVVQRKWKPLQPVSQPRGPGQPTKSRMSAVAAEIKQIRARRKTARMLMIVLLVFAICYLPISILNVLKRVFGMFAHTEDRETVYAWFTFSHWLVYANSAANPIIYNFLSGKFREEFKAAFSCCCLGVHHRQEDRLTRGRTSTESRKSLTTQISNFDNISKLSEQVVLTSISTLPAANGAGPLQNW

This test has as its target OX2R (Homo sapiens (Human), UniProt O43614). Put plainly: radioligand binding assay, OX2 receptor. The note with it: membranes prepared from CHO cells expressing the OX2 receptor. On the procedure:
The utility of the compounds in accordance with the present invention as orexin receptor OX1R and/or OX2R antagonists may be readily determined without undue experimentation by methodology well known in the art, including the “FLIPR Ca^2+ Flux Assay” (Okumura et al., Biochem. Biophys. Res. Comm. 280:976-981, 2001). In a typical experiment the OX1 and OX2 receptor antagonistic activity of the compounds of the present invention was determined in accordance with the following experimental method. For intracellular calcium measurements, Chinese hamster ovary (CHO) cells expressing the rat orexin-1 receptor or the human orexin-2 receptor, are grown in Iscove's modified DMEM containing 2 mM L-glutamine, […], 1% hypoxanthine-thymidine supplement, 100 U/ml penicillin, 100 ug/ml streptomycin and 10% heat-inactivated fetal calf serum (FCS). The cells are seeded at 20,000 cells/well into Becton-Dickinson black 384-well clear bottom sterile plates coated with poly-D-lysine. All reagents were from GIBCO-Invitrogen Corp. The seeded plates are incubated overnight at 37° C. and 5% CO2. Ala-6,12 human orexin-A as the agonist is prepared as a 1 mM stock solution in 1% bovine serum albumin (BSA) and diluted in assay buffer (HBSS containing 20 mM HEPES, 0.1% BSA and 2.5 mM probenecid, pH7.4) for use in the assay at a final concentration of […]. Test compounds are prepared as 10 mM stock solution in DMSO, then diluted in 384-well plates, first in DMSO, then assay buffer. On the day of the assay, cells are washed 3 times with 100 ul assay buffer and then incubated for 60 min (37° C., 5% CO2) in 60 ul assay buffer containing 1 uM Fluo-4AM ester, 0.02% pluronic acid, and 1% BSA. The dye loading solution is then aspirated and cells are washed 3 times with 100 ul assay buffer. 30 ul of that same buffer is left in each well. Within the Fluorescent Imaging Plate Reader (FLIPR, Molecular Devices), test compounds are added to the plate in a volume of 25 ul, incubated for 5 min and finally 25 ul of agonist is added. Fluorescence is measured for each well at 1 second intervals for 5 minutes and the height of each fluorescence peak is compared to the height of the fluorescence peak induced by 70 pM Ala-6,12 orexin-A with buffer in place of antagonist. […] Alternatively, compound potency can be assessed by a radioligand binding assay (described in Bergman et. al. Bioorg. Med. Chem. Lett. 2008, 18, 1425-1430) in which the inhibition constant (Ki) is determined in membranes prepared from CHO cells expressing either the OX1 or OX2 receptor. The intrinsic orexin receptor antagonist activity of a compound which may be used in the present invention may be determined by these assays.
Consider `COc1ccc(CNC(=O)c2cc(-c3cncc(C)c3)ncc2-c2cccc(F)c2)nc1OC` [1-16], for which the affinity, expressed as Ki, was 0.91 nM.
Then `COc1nc(CNC(=O)c2cc(-c3cncc(C)c3)ncc2-c2nccs2)ccc1C1CC1` [7-7, N-[(5-cyclopropyl-6-methoxypyridin-2-yl)methyl]-5′-methyl-5-(1,3-thiazol-2-yl)-2,3′-bipyridine-4-carboxamide], with 0.97 nM; and `COc1ccc(CNC(=O)c2cc(-c3cncc(C)c3)ncc2-c2nccs2)nc1OC` [7-5, N-[(5,6-Dimethoxypyridin-2-yl)methyl]-5′-methyl-5-(1,3-thiazol-2-yl)-2,3′-bipyridine-4-carboxamide], with 0.95 nM; and `COc1ncc(CNC(=O)c2cc(-c3cncc(C)c3)ncc2-c2cccc(F)c2)nc1OC` [1-13], with 4.5 nM.
